We go through one substance from patent publication US11891628B2, “Method for biomimetic culture of urothelial cells and uses thereof” (China Medical University, priority 2018, dated 2024).

Assay [1] has as its system MBT-2-luc orthotopic graft bladder tumor. Description: Orthotopic MBT-2-luc graft bladder tumor mouse model.
Method: The tumor bearing mice were enrolled when tumor bioluminescent signal reached 10^5 total plex and treated according to the treatment scheme (A).
Tumors from mice of different treatment groups were harvested, processed and sectioned for tumor cell Ki-67 IHC and TUNEL assay. Tumor sections were evaluated for cell proliferation 45 with Ki-67 IHC staining (A). Ki-67 positive cells on tumor sections were counted and quantified from mice of 3 independent experiments (B). Tumor sections were stained with TUNEL (FITC) and observed under a fluorescent microscope (C). DAPI was used for nuclear staining. TUNEL positive cells on tumor sections were counted and quantified from mice of 3 independent experiments (D). Values are expressed as mean±standard error of the mean (n=3). *p<0.05; **p<0.01; ***p<0.001, by Student's t test. Scale bar, 50 μm.
Tumors from mice given different treatments were analyzed by IHC for lymphocyte and NK cell infiltration. Representative images of anti-CD4 (A), CD8 (B) and NKG2D (C) IHC staining on tumor sections. Quantification of CD4+ T lymphocytes (D), CD8+T lymphocytes (E) and NKG2D+ NK cells (F) in tumors for each treatment group by counting the positive cells in four randomly selected HPFs among 3 mice in each group, and data were expressed as the means±SD. Error bars represent SD. *p<0.05; **p<0.01; ***p<0.001, by Student's t test.
Female C3H/HeJ 9-week-old mice were used to establish the intramural orthotopic model. MBT-2 murine urothelial carcinoma cells stably expressing luciferase gene (MBT-2-luc) were intramuscularly injected to mouse bladder walls and capture tumor imaged by Xenogen IVIS 200 once per week. The mice are divided control and experiment groups when tumors are reached around 1×10^5 p/s total flux in bioluminescence imaging. The tumor bearing mice were divided into 4 treatment groups: (i). Vehicle control, (ii). Xenogeneic urothelial cell: intravesical of instillation xenogeneic urothelial cells (1×10^6 cells), once a week, day 3 for 4 weeks, (iii). […] A 24-gauge catheter is introduced into the lumen of the bladder through the urethra. Xenogeneic urothelial cells, 1×10^6 in a 100 μl suspension is then injected into the bladder. To prevent voiding of the xenogeneic urothelial cells, the catheter is held in place for at least 40 minutes with the injection syringe attached. The catheter is removed before the mouse recovered from anesthesia. The responses of mice are analyzed on BLI total flux intensity changes from the baseline.
The subject of assay [2] is BBN-induced bladder tumor. Description: BBN-induced bladder tumor mouse model. It counts as in vivo, mice. The procedure:
FIG. 9. […] Tumor-bearing mice were treated according to the experimental scheme (A). Representative photographs of the gross tumors from mice with different treatments (B). Tumor weights of the different treatment groups (C) (mean±SD, at least 9 mice from 3 independent experiments). Representative H&E stained images of tumors of different treatment groups (D). Histograms of the pathological analysis for the proportions of hyperplastic and neoplastic changes in bladder H&E stained section of mice with different treatments (E). *p<0.05; **p<0.01 by Student's t test.
For BBN-induced bladder tumor formation, a 0.05% concentration of BBN (TCI America, Portland, OR) was dissolved in drinking water, and BBN-containing water in a dark bottle was provided to 8-10 week old female C57BL/6 mice ad libitum for 10-20 weeks until hematuria score is over 2+ (Arkray Aution Sticks urine strip) as a sign of bladder tumor formation. […]
To test the anti-tumor effects of intravesical xenogeneic cell therapy in combination with chemotherapeutic agents in delaying tumor progression, BBN-induced tumor mouse model, which simulates the human bladder tumorigenesis from hyperplasia, carcinoma in situ (CIS) to invasive carcinoma was used. […] The progression of BBN-induced bladder tumors in the treatment groups and control group was assessed by macroscopic and histopathological examination from harvested bladders. […]

Setting [3] is: IHC on tumor sections, vs vehicle.

With Gemcitabine plus cisplatin [GC], in assay [1] (setting [3]), the “NKG2D+ NK cell infiltration in tumors” value is given as “not observed”, the “tumor CD4+ T cell infiltration” value is “increased” and the “tumor CD8+ T cell infiltration” value is “increased”. Moreover, the tumor growth result in assay [1] (bioluminescence, vs vehicle-treated groups, 4 weeks treatment) is “significantly decreased”. In assay [2] (harvested bladders after 4 weeks treatment), the tumor weight entry is listed as “significantly reduced”. For the same substance, the “proportion of mice progressed to invasive carcinoma” value in assay [2] (histopathological analysis of H&E sections) is reported as “significantly lower”.
